Each compound was assayed against T1, human PAR4 (Homo sapiens, UniProt Q96RI0) (assay: PAR4 FLIPR assay: antagonism of agonist-peptide-induced calcium mobilization in PAR4-expressing HEK293 cells). Details: H-Ala-Phe(4-F)-[…]NH2-induced intracellular calcium mobilization, 11-point curves.
T1 construct: expressed in transfected cells; host or cells: HEK293 PAR4 Clone 1.2A (BMS Arctic ID 383940)
T1 sequence (Q96RI0 18-385): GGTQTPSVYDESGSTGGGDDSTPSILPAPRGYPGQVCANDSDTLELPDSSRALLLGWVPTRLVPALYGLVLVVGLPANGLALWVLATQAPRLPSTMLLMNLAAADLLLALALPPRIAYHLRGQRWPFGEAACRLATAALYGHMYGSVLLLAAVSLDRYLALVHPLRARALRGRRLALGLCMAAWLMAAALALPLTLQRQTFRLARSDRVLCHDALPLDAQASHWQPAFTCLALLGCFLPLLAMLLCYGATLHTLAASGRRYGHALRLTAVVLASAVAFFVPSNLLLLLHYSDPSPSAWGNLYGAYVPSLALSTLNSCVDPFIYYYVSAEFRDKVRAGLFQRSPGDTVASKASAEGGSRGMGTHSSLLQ
Assay type: cell-based

Question: Which IC50 does the source give for COCc1cnc2c(-c3nc4c(C)cc(OC(F)(F)F)cc4s3)cc(C)cc2n1 [Example 262, 2-(2-(methoxymethyl)-7-methylquinoxalin-5-yl)-4-methyl-6-(trifluoromethoxy)benzo[d]thiazole] here?
Answer: 0.8 nM

Question: With COCc1cnc2c(-c3nc4c(C)cc(OC(F)F)cc4s3)cc(C)cc2n1 [Example 263, 6-(difluoromethoxy)-2-(2-(methoxymethyl)-7-methylquinoxalin-5-yl)-4-methylbenzo[d]thiazole] as the compound, how does the IC50 read?
Answer: 0.8 nM

Question: With COCc1cnc2c(-c3nc4ccc(C(=O)OC)cc4s3)cc(C)cc2n1 [Example 264] as the compound, how does the IC50 read?
Answer: 8.3 nM

Question: For COCc1cnc2c(-c3nc4c(Cl)cc(OC)c(F)c4s3)cc(C)cc2n1 [Example 265, 4-chloro-7-fluoro-6-methoxy-2-(2-(methoxymethyl)-7-methylquinoxalin-5-yl)benzo[d]thiazole], which IC50 is on record?
Answer: 6.8 nM

Question: How did the IC50 turn out when COCc1cnc2c(-c3nc4c(Cl)cc(F)cc4s3)cc(C)cc2n1 [Example 266, 4-chloro-6-fluoro-2-(2-(methoxymethyl)-7-methylquinoxalin-5-yl)benzo[d]thiazole] was run?
Answer: 2.2 nM

Question: COCc1cnc2c(-c3nc4c(F)c(F)c(OC)cc4s3)cc(C)cc2n1 [Example 267, 4,5-difluoro-6-methoxy-2-(2-(methoxymethyl)-7-methylquinoxalin-5-yl)benzo[d]thiazole] was tested. Which IC50 did it give?
Answer: 0.8 nM

Question: For COCc1cnc2c(-c3nc4cc(Cl)c(OC)cc4s3)cc(C)cc2n1 [Example 268, 5-chloro-6-methoxy-2-(2-(methoxymethyl)-7-methylquinoxalin-5-yl)benzo[d]thiazole], which IC50 is on record?
Answer: 0.9 nM

Question: For COCc1cnc2c(-c3nc4c(OC)c(F)c(F)cc4s3)cc(C)cc2n1 [Example 269, 5,6-difluoro-4-methoxy-2-(2-(methoxymethyl)-7-methylquinoxalin-5-yl)benzo [d]thiazole], which IC50 is on record?
Answer: 3.6 nM

Question: How did the IC50 turn out when COCc1cnc2c(-c3nc4c(OC)cc(F)cc4s3)cc(C)cc2n1 [Example 270, 6-fluoro-4-methoxy-2-(2-(methoxymethyl)-7-methylquinoxalin-5-yl)benzo[d]thiazole] was run?
Answer: 17 nM

Question: COCc1cnc2c(-c3nc4c(OC)c(F)c(OC)cc4s3)cc(C)cc2n1 [Example 271, 5-fluoro-4,6-dimethoxy-2-(2-(methoxymethyl)-7-methylquinoxalin-5-yl)benzo[d]thiazole] was tested. Which IC50 did it give?
Answer: 1.5 nM

Question: For COCc1cnc2c(-c3nc4ccc(F)cc4s3)cc(C)cc2n1 [Example 272, 6-fluoro-2-(2-(methoxymethyl)-7-methylquinoxalin-5-yl)benzo[d]thiazole], which IC50 is on record?
Answer: 3.2 nM

Question: COCc1cnc2c(-c3nc4c(F)cccc4s3)cc(C)cc2n1 [Example 273, 4-fluoro-2-(2-(methoxymethyl)-7-methylquinoxalin-5-yl)benzo[d]thiazole] was tested. Which IC50 did it give?
Answer: 4.3 nM

Question: Which IC50 does the source give for COCc1cnc2c(-c3nc4ccc(Cl)cc4s3)cc(C)cc2n1 [Example 274, 6-chloro-2-(2-(methoxymethyl)-7-methylquinoxalin-5-yl)benzo[d]thiazole] here?
Answer: 5.7 nM

Question: With COCc1cnc2c(-c3nc4c(Cl)cc(Cl)cc4s3)cc(C)cc2n1 [Example 275, 4,6-dichloro-2-(2-(methoxymethyl)-7-methylquinoxalin-5-yl)benzo[d]thiazole] as the compound, how does the IC50 read?
Answer: 0.9 nM

Question: With COCc1cnc2c(-c3nc4cc(C)c(OC)cc4s3)cc(C)cc2n1 [Example 276, 6-methoxy-2-(2-(methoxymethyl)-7-methylquinoxalin-5-yl)-5-methylbenzo[d]thiazole] as the compound, how does the IC50 read?
Answer: 1.2 nM

Question: COCc1cnc2c(-c3nc4cc(F)c(OC)cc4s3)cc(C)cc2n1 [Example 277, 5-fluoro-6-methoxy-2-(2-(methoxymethyl)-7-methylquinoxalin-5-yl)benzo[d]thiazole] was tested. Which IC50 did it give?
Answer: 9 nM

Question: With COc1cnc2c(-c3nc4c(F)c(F)c(OC)cc4s3)cc(C)cc2n1 [Example 278, 4,5-difluoro-6-methoxy-2-(2-methoxy-7-methylquinoxalin-5-yl)benzo[d]thiazole] as the compound, how does the IC50 read?
Answer: 4.6 nM

Question: How did the IC50 turn out when COc1cnc2c(-c3nc4cc(C)c(OC)cc4s3)cc(C)cc2n1 [Example 279, 6-methoxy-2-(2-methoxy-7-methylquinoxalin-5-yl)-5-methylbenzo[d]thiazole] was run?
Answer: 18 nM

Question: COc1cnc2c(-c3nc4cc(F)c(OC)cc4s3)cc(C)cc2n1 [Example 280, 5-fluoro-6-methoxy-2-(2-methoxy-7-methylquinoxalin-5-yl)benzo[d]thiazole] was tested. Which IC50 did it give?
Answer: 4.3 nM

Question: Which IC50 does the source give for COCc1cnc2c(-c3nc4c(C)cc(O)cc4s3)cc(C)cc2n1 [Example 281, 2-(2-(methoxymethyl)-7-methylquinoxalin-5-yl)-4-methylbenzo[d]thiazol-6-ol] here?
Answer: 3.6 nM

Question: How did the IC50 turn out when COc1cnc2c(-c3nc4c(Cl)c(F)c(OC)cc4s3)cc(C)cc2n1 [Example 282, 4-chloro-5-fluoro-6-methoxy-2-(2-methoxy-7-methylquinoxalin-5-yl)benzo[d]thiazole] was run?
Answer: 1.1 nM

Question: Which IC50 does the source give for COCc1cnc2c(-c3nc4c(Cl)c(F)c(OC)cc4s3)cc(C)cc2n1 [Example 283, 4-chloro-5-fluoro-6-methoxy-2-(2-(methoxymethyl)-7-methylquinoxalin-5-yl)benzo[d]thiazole] here?
Answer: 1.9 nM

Question: Which IC50 does the source give for COCc1cnc2c(-c3nc4c(C)c(C)c(OC)cc4s3)cc(C)cc2n1 [Example 284, 6-methoxy-2-(2-(methoxymethyl)-7-methylquinoxalin-5-yl)-4,5-dimethylbenzo[d]thiazole] here?
Answer: 5.9 nM

Question: For COC(=O)COc1cc2sc(-c3cc(C)cc4nc(OC)cnc34)nc2c(C)c1F [Example 285, methyl 2-((5-fluoro-2-(2-methoxy-7-methylquinoxalin-5-yl)-4-methylbenzo[d]thiazol-6-yl)oxy)acetate], which IC50 is on record?
Answer: 16 nM

Question: How did the IC50 turn out when COCc1cnc2c(-c3nc4c(C)c(F)c(OCC(=O)OC)cc4s3)cc(C)cc2n1 [Example 286, methyl 2-((5-fluoro-2-(2-(methoxymethyl)-7-methylquinoxalin-5-yl)-4-methylbenzo[d]thiazol-6-yl)oxy)acetate] was run?
Answer: 0.5 nM

Question: How did the IC50 turn out when COC(=O)COc1cc2sc(-c3cc(C)cc4nc(OC)cnc34)nc2c(Cl)c1F [Example 287, methyl 2-((4-chloro-5-fluoro-2-(2-methoxy-7-methylquinoxalin-5-yl)benzo[d]thiazol-6-yl)oxy)acetate] was run?
Answer: 8.5 nM

Question: COc1cnc2c(-c3nc4c(C)c(F)c(OCCO)cc4s3)cc(C)cc2n1 [Example 288, 2-((5-fluoro-2-(2-methoxy-7-methylquinoxalin-5-yl)-4-methylbenzo[d]thiazol-6-yl)oxy)ethanol] was tested. Which IC50 did it give?
Answer: 8.6 nM

Question: COCc1cnc2c(-c3nc4c(C)c(F)c(OCCO)cc4s3)cc(C)cc2n1 [Example 289, 2-((5-fluoro-2-(2-(methoxymethyl)-7-methylquinoxalin-5-yl)-4-methylbenzo[d]thiazol-6-yl)oxy)ethanol] was tested. Which IC50 did it give?
Answer: 1.3 nM

Question: Which IC50 does the source give for COCc1cnc2c(-c3nc4c(C)c(F)c(O)cc4s3)cc(C)cc2n1 [Example 290, 5-fluoro-2-(2-(methoxymethyl)-7-methylquinoxalin-5-yl)-4-methylbenzo[d] thiazol-6-ol] here?
Answer: 6 nM

Question: How did the IC50 turn out when COCc1cnc2c(-c3nc4c(Cl)c(F)c(O)cc4s3)cc(C)cc2n1 [Example 291, 4-chloro-5-fluoro-2-(2-(methoxymethyl)-7-methylquinoxalin-5-yl) benzo[d]thiazol-6-ol] was run?
Answer: 11 nM

Question: COCc1cnc2c(-c3nc4c(Cl)c(F)c(OCC(=O)OC)cc4s3)cc(C)cc2n1 [Example 292, methyl 2-((4-chloro-5-fluoro-2-(2-(methoxymethyl)-7-methylquinoxalin-5-yl)benzo[d]thiazol-6-yl)oxy)acetate] was tested. Which IC50 did it give?
Answer: 0.8 nM

Question: How did the IC50 turn out when COCc1cnc2c(-c3nc4c(Cl)c(F)c(OCCO)cc4s3)cc(C)cc2n1 [Example 293, 2-((4-chloro-5-fluoro-2-(2-(methoxymethyl)-7-methylquinoxalin-5-yl)benzo[d]thiazol-6-yl)oxy)ethanol] was run?
Answer: 1 nM

Question: Which IC50 does the source give for COc1cnc2c(-c3nc4c(C)c(F)c(OC)cc4s3)cc(C)cc2n1 [Example 294, 5-fluoro-6-methoxy-2-(2-methoxy-7-methylquinoxalin-5-yl)-4-methylbenzo[d]thiazole] here?
Answer: 5.2 nM

Question: How did the IC50 turn out when COCc1cnc2c(-c3nc4c(C)c(F)c(OC)cc4s3)cc(C)cc2n1 [Example 295, 5-fluoro-6-methoxy-2-(2-(methoxymethyl)-7-methylquinoxalin-5-yl)-4-methylbenzo[d]thiazole] was run?
Answer: 0.7 nM

Question: With COCc1cnc2c(-c3nc4c(C)c(C)c(OCC(=O)OC)cc4s3)cc(C)cc2n1 [Example 296, methyl 2-((2-(2-(methoxymethyl)-7-methylquinoxalin-5-yl)-4,5-dimethylbenzo[d]thiazol-6-yl)oxy)acetate] as the compound, how does the IC50 read?
Answer: 1.2 nM

Question: COCc1cnc2c(-c3nc4c(C)c(C)c(OCCO)cc4s3)cc(C)cc2n1 [Example 297, 2-((2-(2-(methoxymethyl)-7-methylquinoxalin-5-yl)-4,5-dimethylbenzo[d]thiazol-6-yl)oxy)ethanol] was tested. Which IC50 did it give?
Answer: 5.7 nM

Question: For COCc1cnc2c(-c3nc4c(Cl)c(C)c(OC)cc4s3)cc(C)cc2n1 [Example 298, 4-chloro-6-methoxy-2-(2-(methoxymethyl)-7-methylquinoxalin-5-yl)-5-methylbenzo[d]thiazole], which IC50 is on record?
Answer: 2.1 nM

Question: COc1cnc2c(-c3nc4c(Cl)c(C)c(OC)cc4s3)cc(C)cc2n1 [Example 299, 4-chloro-6-methoxy-2-(2-methoxy-7-methylquinoxalin-5-yl)-5-methylbenzo[d] thiazole] was tested. Which IC50 did it give?
Answer: 10 nM

Question: COCc1cnc2c(-c3nc4c(CO)c(C)c(OC)cc4s3)cc(C)cc2n1 [Example 300] was tested. Which IC50 did it give?
Answer: 0.9 nM

Question: How did the IC50 turn out when COc1cnc2c(-c3nc4c(CO)c(C)c(OC)cc4s3)cc(C)cc2n1 [Example 301] was run?
Answer: 15 nM
